# Tests used:
# [1] = tested on: HAdV5-GFP; test: Plaque assay, HAdV5-GFP in 293β5 cells; format: cell-based; conditions: read-out: Percentage of plaque formation inhibition, HAdV5-GFP, 10 μM, 293β5 cell line
# Procedure: 1.5. Plaque assay. For low MOI infections, active compounds were further evaluated in a plaque assay. 293β5 cells were seeded in 6-well plates at 4×10^5 cells per well in duplicate for each condition. When cells reached 80-90% confluency, they were infected with HAdV5-GFP or HAdV16-GFP (0.06 vp/cell) and rocked for 2 h at 37° C. The inoculum was removed and the cells were washed once with PBS. The cells were then carefully overlaid with 4 ml/well of equal parts of 1.6% […] Difco Agar Noble (Becton, Dickinson & Co, Sparks, MD) and 2× EMEM (BioWhittaker) supplemented with 2x penicillin/streptomycin, 2× L-glutamine and 10% FBS. The mixture also contained compound in concentrations ranging from 5 to 1 μM. Following incubation for 7 days at 37° C., plates were scanned with a Typhoon 9410 imager (GE Healthcare Life Sciences), and plaques were quantified with ImageJ.43
# For the plaque assay 293β5 cells were infected with HAdV5-GFP (in the presence of compound at 10 μM) (Table 2). From this generation of compounds, our primary screening identified 4 compounds (12, 13, 22 and 25) that inhibited HAdV5-GFP plaque formation >90% compared to a control with the same volume of DMSO.
# [2] = Cytotoxicity assay (alamarBlue cell viability); format: cell-based, Human; conditions: human, A549 cells
# Procedure: 1.4. Cytotoxicity assay. The cytotoxicity of the compounds was measured using the AlarmBlue cell viability assay (Invitrogen) according to the manufacturer's instructions. Actively dividing A549 cells were incubated with compounds for 48 h. After the incubation the alamarBlue reagent was added to the cells ( 1/10th alamarBlue reagent in culture medium) for an extra 4 h. The 50% cell cytotoxic concentration (CC50) of the molecules was calculated according to Cheng et al.42 The selectivity index (SI) was evaluated as the ratio of CC50 to IC50, where the IC50 is defined as the concentration of compound that inhibits HAdV infection by 50%.
SMILES,melting point,inhibition at 10 µM [1],CC50 at 48 h ([2]; 48 h),CC50 at 48 h [2]
"COc1ccc(C(=O)N2CCN(C(=O)C(C)(C)C)CC2C)cc1 (centres unmarked) [Compound 16, 1-(4-Methoxybenzoyl)-2-methyl-4-pivaloylpiperazine]",96 to 97 °C,0%,–,–
"CC1CN(C(=O)OC(C)(C)C)CCN1C(=O)c1ccc([N+](=O)[O-])cc1 (centres unmarked) [Compound 10, 4-tert-Butoxycarbonyl-2-methyl-1-(4-nitrobenzoyl)piperazine]",115 to 117 °C,33.6 ± 2.17%,–,–
"CC(C)(C)OC(=O)N1CCN(C(=O)Nc2ccccc2[N+](=O)[O-])C(c2ccccc2)C1 (centres unmarked) [Compound 51, 4-tert-Butoxycarbonyl-1-[(2-nitrophenyl)aminocarbonyl]-2-phenylpiperazine]",–,100%,82.2 ± 9.06 µM,–
"CC1CN(C(=O)OC(C)(C)C)CCN1C(=O)Nc1ccccc1[N+](=O)[O-] (centres unmarked) [Compound 29, 4-tert-Butoxycarbonyl-2-methyl-1-[(2-nitrophenyl)aminocarbonyl]piperazine]",199 to 201 °C,50 ± 2.75%,–,–
"CC1CN(C(=O)c2cc3ccccc3o2)CCN1C(=O)Nc1ccc(Cl)cc1 (centres unmarked) [Compound 32, 4-(Benzofuran-2-carbonyl)-1-[(4-chlorophenyl)aminocarbonyl]-2-methylpiperazine]",–,6.69 ± 11.1%,144 ± 20.8 µM,–
"COc1ccc(NC(=O)N2CCN(C(=O)C(C)(C)C)CC2c2ccccc2)cc1 (centres unmarked) [Compound 58, 1-[(4-Methoxyphenyl)aminocarbonyl]-2-phenyl-4-pivaloylpiperazine]",62 to 65 °C,70.1 ± 2.7%,199 ± 33.6 µM,–
"CC1CN(C(=O)c2cc3ccccc3o2)CCN1C(=O)Nc1ccc(F)cc1F (centres unmarked) [Compound 39, 4-(Benzofuran-2-carbonyl)-1-[(2,4-difluorophenyl)aminocarbonyl]-2-methylpiperazine]",163 to 165 °C,34.2 ± 13.6%,–,–
"CC1CN(C(=O)OC(C)(C)C)CCN1C(=O)Nc1ccc(C(F)(F)F)cc1 (centres unmarked) [Compound 28, 4-tert-Butoxycarbonyl-2-methyl-1-[(4-trifluoromethylphenyl)aminocarbonyl]piperazine]",–,30.6 ± 14.6%,137 ± 24.3 µM,–
"COc1ccc(NC(=O)N2CCN(C(=O)c3cc4ccccc4o3)CC2C)cc1 (centres unmarked) [Compound 26, 4-(Benzofuran-2-carbonyl)-1-[(4-methoxyphenyl)aminocarbonyl]-2-methylpiperazine]",170 to 172 °C,33.6 ± 14.7%,–,–
"Cc1ccc(NC(=O)N2CCN(C(=O)OC(C)(C)C)CC2c2ccccc2)cc1 (centres unmarked) [Compound 55, 4-tert-Butoxycarbonyl-1-[(4-methylphenyl)aminocarbonyl]-2-phenylpiperazine]",–,63.02 ± 0.2%,165 ± 17.4 µM,–
"CC1CN(C(=O)OC(C)(C)C)CCN1C(=O)Nc1ccc([N+](=O)[O-])cc1 (centres unmarked) [Compound 13, 4-tert-Butoxycarbonyl-2-methyl-1-[(4-nitrophenyl)aminocarbonyl]piperazine]",–,> 90%,143 ± 3.29 µM,–
"CC(C)(C)C(=O)N1CCN(C(=O)Nc2ccc([N+](=O)[O-])cc2)C(c2ccccc2)C1 (centres unmarked) [Compound 56, 1-[(4-Nitrophenyl)aminocarbonyl]-2-phenyl-4-pivaloylpiperazine]",–,43.8 ± 13.2%,102 ± 8.38 µM,–
"CC1CN(C(=O)OC(C)(C)C)CCN1C(=O)Nc1ccc(Cl)cc1 (centres unmarked) [Compound 27, 4-tert-Butoxycarbonyl-1-[(4-chlorophenyl)aminocarbonyl]-2-methylpiperazine]",–,62.03 ± 0.26%,150 ± 1.01 µM,–
"CC1CN(C(=O)c2cc3ccccc3o2)CCN1C(=O)Nc1ccc(C(F)(F)F)cc1 (centres unmarked) [Compound 33, 4-(Benzofuran-2-carbonyl)-2-methyl-1-[(4-trifluoromethylphenyl)aminocarbonyl]piperazine]",–,91 to 100%,82.2 ± 24.3 µM,–
"O=C(c1cc2ccccc2o1)N1CCN(C(=O)Nc2ccc(F)cc2)C(c2ccccc2)C1 (centres unmarked) [Compound 62, 4-(Benzofuran-2-carbonyl)-1-[(4-fluorophenyl)aminocarbonyl]-2-phenylpiperazine]",122 to 124 °C,98.81 ± 0.15%,12.5 ± 0.79 µM,–
"CC1CN(C(=O)OC(C)(C)C)CCN1C(=S)Nc1ccc([N+](=O)[O-])cc1 (centres unmarked) [Compound 12, 4-tert-Butoxycarbonyl-2-methyl-1-[(4-nitrophenyl)aminothiocarbonyl]piperazine]",–,> 90%,26.3 ± 1.59 µM,–

SMILES,melting point,inhibition at 10 µM [1],CC50 at 48 h ([2]; 48 h),CC50 at 48 h [2]
"CC(C)(C)OC(=O)N1CCN(C(=O)Nc2ccc(F)cc2)C(c2ccccc2)C1 (centres unmarked) [Compound 49, 4-tert-Butoxycarbonyl-1-[(4-fluorophenyl)aminocarbonyl]-2-phenylpiperazine]",–,75.84 ± 0.49%,110 ± 8.09 µM,–
"CC1CN(C(=O)c2ccccc2)CCN1C(=O)c1ccc([N+](=O)[O-])cc1 (centres unmarked) [Compound 20, 4-Benzoyl-2-methyl-1-(4-nitrobenzoyl)piperazine]",103 to 105 °C,0%,–,–
"CC1CN(C(=O)c2cc3ccccc3o2)CCN1C(=O)Nc1ccccc1[N+](=O)[O-] (centres unmarked) [Compound 36, 4-(Benzofuran-2-carbonyl)-2-methyl-1-[(2-nitrophenyl)aminocarbonyl]piperazine]",–,91 to 100%,203 ± 4.09 µM,> 200 µM
"CC(C)(C)OC(=O)N1CCN(C(=O)Nc2ccc(C(F)(F)F)cc2)C(c2ccccc2)C1 (centres unmarked) [Compound 48, 4-tert-Butoxycarbonyl-2-phenyl-1-[(4-trifluoromethylphenyl)aminocarbonyl]piperazine]",–,71.51 ± 0.11%,42.1 ± 28.6 µM,–
"CC(C)(C)OC(=O)N1CCN(C(=O)Nc2ccc(C#N)cc2)C(c2ccccc2)C1 (centres unmarked) [Compound 50, 4-tert-Butoxycarbonyl-1-[(4-cyanophenyl)aminocarbonyl]-2-phenylpiperazine]",–,67.2 ± 16.5%,91.3 ± 61.5 µM,–
"CC(C)(C)OC(=O)N1CCN(C(=O)Nc2ccc(Cl)c(C(F)(F)F)c2)C(c2ccccc2)C1 (centres unmarked) [Compound 53, 4-tert-Butoxycarbonyl-1-[(4-chloro-3-trifluoromethylphenyl)aminocarbonyl]-2-phenylpiperazine]",–,100%,27.5 µM,–
"CC1CN(C(=O)c2cc3ccccc3o2)CCN1C(=O)Nc1ccccc1F (centres unmarked) [Compound 37, 4-(Benzofuran-2-carbonyl)-1-[(2-fluorophenyl)aminocarbonyl]-2-methylpiperazine]",127 to 129 °C,50.9 ± 4.13%,–,–
"CC1CN(C(=O)c2cc3ccccc3o2)CCN1C(=O)Nc1ccc([N+](=O)[O-])cc1 (centres unmarked) [Compound 25, 4-(Benzofuran-2-carbonyl)-2-methyl-1-[(4-nitrophenyl)aminocarbonyl]piperazine]",–,> 90%,51.1 ± 7.35 µM,–
"CC1CN(C(=O)c2ccccc2)CCN1C(=S)Nc1ccc([N+](=O)[O-])cc1 (centres unmarked) [Compound 22, 4-Benzoyl-2-methyl-1-[(4-nitrophenyl)aminothiocarbonyl]piperazine]",–,> 90%,31.4 ± 2.82 µM,–
"CC(C)(C)OC(=O)N1CCN(C(=O)Nc2ccc(Cl)cc2)C(c2ccccc2)C1 (centres unmarked) [Compound 47, 4-tert-Butoxycarbonyl-1-[(4-chlorophenyl)aminocarbonyl]-2-phenylpiperazine]",–,86.3 ± 6.35%,17.1 ± 4.24 µM,–
"CC1CN(C(=O)C(C)(C)C)CCN1C(=O)c1ccc([N+](=O)[O-])cc1 (centres unmarked) [Compound 15, 2-Methyl-1-(4-nitrobenzoyl)-4-pivaloylpiperazine]",143 to 145 °C,23.1 ± 3.71%,–,–
"CC(C)(C)OC(=O)N1CCN(C(=O)Nc2cc(C(F)(F)F)ccc2Cl)C(c2ccccc2)C1 (centres unmarked) [Compound 52, 4-tert-Butoxycarbonyl-1-[(2-chloro-5-trifluoromethylphenyl)aminocarbonyl]-2-phenylpiperazine]",–,100%,93.36 ± 0.73 µM,–
"COc1ccc(C(=O)N2CCN(C(=O)OC(C)(C)C)CC2C)cc1 (centres unmarked) [Compound 11, 4-tert-Butoxycarbonyl-1-(4-methoxybenzoyl)-2-methylpiperazine]",84 to 87 °C,33.8 ± 4.02%,–,–
"CC1CN(C(=O)c2cc3ccccc3o2)CCN1C(=O)Nc1ccc(C#N)cc1 (centres unmarked) [Compound 34, 4-(Benzofuran-2-carbonyl)-1-[(4-cyanophenyl)aminocarbonyl]-2-methylpiperazine]",–,83.2 ± 1.55%,118 ± 30.2 µM,–
"COc1ccc(NC(=O)N2CCN(C(=O)OC(C)(C)C)CC2c2ccccc2)cc1 (centres unmarked) [Compound 54, 4-tert-Butoxycarbonyl-1-[(4-methoxyphenyl)aminocarbonyl]-2-phenylpiperazine]",–,78.9 ± 1.57%,133 ± 58.8 µM,–
